Here are results for five compounds from patent US11331369B2, “Endoparasitic depsipeptides” (Zoetis Services LLC, priority 2017, dated 2022).

The subject of this test is microfilariae of Dirofilaria immitis. As to the kind of experiment: Dirofilaria immitis, Microfilaria (DiMF) In vitro Assay. Format: cell-based. The note with it: 72 h, read-out: DiMF Minimum Effective Dose (MED), approximately 72 hours incubation, microfilariae assessed for survival or paralysis.

For the compound `CC(C)C[C@H]1C(=O)O[C@H](Cc2ccc(Cn3cc(CCO)cn3)cc2)C(=O)N(C)[C@@H](CC(C)C)C(=O)O[C@H](C)C(=O)N(C)[C@@H](CC(C)C)C(=O)O[C@H](Cc2ccccc2)C(=O)N(C)[C@@H](CC(C)C)C(=O)O[C@H](C)C(=O)N1C` [Example 2-35, (3S,6R,9S,12R,15S,18R,21S,24R)-6-benzyl-18-(4-((4-(2-hydroxyethyl)-1H-pyrazol-1-yl)methyl)benzyl)-3,9,15,21-tetraisobutyl-4,10,12,16,22,24-hexamethyl-1,7,13,19-tetraoxa-4,10,16,22-tetraazacyclotetracosan-2,5,8,11,14,17,20,23-octaone], the minimal effective concentration lay within 0.01 to 0.1 µM.
Then `Cc1nn(Cc2ccc(C[C@H]3OC(=O)[C@H](CC(C)C)N(C)C(=O)[C@@H](C)OC(=O)[C@H](CC(C)C)N(C)C(=O)[C@@H](Cc4ccccc4)OC(=O)[C@H](CC(C)C)N(C)C(=O)[C@@H](C)OC(=O)[C@H](CC(C)C)N(C)C3=O)cc2)c(C)c1C(F)(F)F` [Example 2-81, (3S,6R,9S,12R,15S,18R,21S,24R)-6-benzyl-18-(4-((3,5-dimethyl-4-(trifluoromethyl)-1H-pyrazol-1-yl)methyl)benzyl)-3,9,15,21-tetraisobutyl-4,10,12,16,22,24-hexamethyl-1,7,13,19-tetraoxa-4,10,16,22-tetraazacyclotetracosan-2,5,8,11,14,17,20,23-octaone], with 0.01 to 0.1 µM; and `CC(C)C[C@H]1C(=O)O[C@H](Cc2ccc(Cn3cc(COc4cccc(C#N)c4)nn3)cc2)C(=O)N(C)[C@@H](CC(C)C)C(=O)O[C@H](C)C(=O)N(C)[C@@H](CC(C)C)C(=O)O[C@H](Cc2ccccc2)C(=O)N(C)[C@@H](CC(C)C)C(=O)O[C@H](C)C(=O)N1C` [Example 10-23, 3-((1-(4-(((2R,5S,8R,11S,14R,17S,20R,23S)-14-benzyl-5,11,17,23-tetraisobutyl-4,8,10,16,20,22-hexamethyl-3,6,9,12,15,18,21,24-octaoxo-1,7,13,19-tetraoxa-4,10,16,22-tetraazacyclotetracosan-2-yl)methyl)benzyl)-1H-1,2,3-triazol-4-yl)methoxy)benzonitrile], with 0.01 to 0.1 µM; and `CC(C)C[C@H]1C(=O)O[C@H](Cc2ccc(Cn3nccc3Cl)cc2)C(=O)N(C)[C@@H](CC(C)C)C(=O)O[C@H](C)C(=O)N(C)[C@@H](CC(C)C)C(=O)O[C@H](Cc2ccc(Cn3ccc(Cl)n3)cc2)C(=O)N(C)[C@@H](CC(C)C)C(=O)O[C@H](C)C(=O)N1C` [Example 1a-46, (3S,6R,9S,12R,15S,18R,21S,24R)-6-(4-((3-chloro-1H-pyrazol-1-yl)methyl)benzyl)-18-(4-((5-chloro-1H-pyrazol-1-yl)methyl)benzyl)-3,9,15,21-tetraisobutyl-4,10,12,16,22,24-hexamethyl-1,7,13,19-tetraoxa-4,10,16,22-tetraazacyclotetracosan-2,5,8,11,14,17,20,23-octaone], with 0.001 to 0.01 µM.
With `CC(C)C[C@H]1C(=O)O[C@H](Cc2cccc(Cn3nc(C4CC4)cc3C3CC3)c2)C(=O)N(C)[C@@H](CC(C)C)C(=O)O[C@H](C)C(=O)N(C)[C@@H](CC(C)C)C(=O)O[C@H](Cc2ccccc2)C(=O)N(C)[C@@H](CC(C)C)C(=O)O[C@H](C)C(=O)N1C` [Example 5-6, (3S,6R,9S,12R,15S,18R,21S,24R)-6-benzyl-18-(3-((3,5-dicyclopropyl-1H-pyrazol-1-yl)methyl)benzyl)-3,9,15,21-tetraisobutyl-4,10,12,16,22,24-hexamethyl-1,7,13,19-tetraoxa-4,10,16,22-tetraazacyclotetracosan-2,5,8,11,14,17,20,23-octaone] the figure was 0.01 to 0.1 µM.
